Experiments:
Format in all cases: cell-based
human TLR9 = molecular target: T1, human TLR9 (Homo sapiens, UniProt Q9NR96); experiment: TLR9 inhibition reporter assay (HEK-Blue SEAP); details: HEK-Blue cells overexpressing human TLR9, ODN2006 5 nM, 22 hour incubation
T1 construct: host or cells: HEK-Blue cells
T1 sequence (Q9NR96 26-1032): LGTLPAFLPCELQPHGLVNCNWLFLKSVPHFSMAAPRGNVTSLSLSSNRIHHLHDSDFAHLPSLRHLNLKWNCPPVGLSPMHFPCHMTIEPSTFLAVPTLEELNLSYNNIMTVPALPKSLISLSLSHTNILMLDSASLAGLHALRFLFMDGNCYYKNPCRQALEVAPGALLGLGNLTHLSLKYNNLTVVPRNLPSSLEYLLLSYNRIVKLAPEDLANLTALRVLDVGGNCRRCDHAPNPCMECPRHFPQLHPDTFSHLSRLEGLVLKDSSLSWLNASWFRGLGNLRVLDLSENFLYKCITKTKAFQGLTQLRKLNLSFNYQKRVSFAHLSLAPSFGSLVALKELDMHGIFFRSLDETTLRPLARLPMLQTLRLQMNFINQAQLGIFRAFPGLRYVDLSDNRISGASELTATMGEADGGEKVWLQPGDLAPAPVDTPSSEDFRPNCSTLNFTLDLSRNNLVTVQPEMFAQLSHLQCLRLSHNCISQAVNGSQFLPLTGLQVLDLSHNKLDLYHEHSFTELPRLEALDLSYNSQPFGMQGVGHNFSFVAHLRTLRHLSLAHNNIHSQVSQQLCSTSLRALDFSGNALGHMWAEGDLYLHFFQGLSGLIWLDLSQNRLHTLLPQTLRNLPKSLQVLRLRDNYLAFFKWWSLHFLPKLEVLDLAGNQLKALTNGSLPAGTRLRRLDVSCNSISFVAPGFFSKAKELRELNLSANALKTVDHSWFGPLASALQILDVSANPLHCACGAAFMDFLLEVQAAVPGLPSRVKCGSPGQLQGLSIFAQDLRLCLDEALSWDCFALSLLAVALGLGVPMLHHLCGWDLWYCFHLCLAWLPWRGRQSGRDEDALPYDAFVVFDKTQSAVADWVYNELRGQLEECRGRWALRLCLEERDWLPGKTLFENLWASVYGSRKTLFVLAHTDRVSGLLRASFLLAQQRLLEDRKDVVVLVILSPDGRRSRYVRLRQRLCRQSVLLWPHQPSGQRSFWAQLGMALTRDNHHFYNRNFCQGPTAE
Procedure: (§1) TLR7/8/9 Inhibition Reporter Assays
(§2) HEK-Blue™-cells (Invivogen) overexpressing human TLR7, TLR8 or TLR9 receptors were used for screening inhibitors of these receptors using an inducible SEAP (secreted embryonic alkaline phosphatase) reporter gene under the control of the IFN-β minimal promoter fused to five NF-κB and AP-1-binding sites. Briefly, cells are seeded into Greiner 384 well plates (15000 cells per well for TLR7, 20,000 for TLR8 and 25,000 for TLR9) and then treated with test compounds in DMSO to yield a final dose response concentration range of 0.05 nM-50 μM. After a 30 minute compound pre-treatment at room temperature, the cells are then stimulated with a TLR7 ligand (gardiquimod at a final concentration of 7.5 μM), TLR8 ligand (R848 at a final concentration of 15.9 μM) or TLR9 ligand (ODN2006 at a final concentration of 5 nM) to activate NF-κB and AP-1 which induce the production of SEAP. After a 22 hour incubation at 37° C., 5% CO2, SEAP levels are determined with the addition of HEK-Blue™ Detection reagent (Invivogen), a cell culture medium that allows for detection of SEAP, according to manufacturer's specifications. The percent inhibition is determined as the % reduction in the HEK-Blue signal present in wells treated with agonist plus DMSO alone compared to wells treated with a known inhibitor.

human TLR8 = molecular target: T2, human TLR8 (Homo sapiens, UniProt Q9NR97); experiment: TLR8 inhibition reporter assay (HEK-Blue SEAP); details: HEK-Blue cells overexpressing human TLR8, R848 15.9 μM, 22 hour incubation
T2 construct: host or cells: HEK-Blue cells
T2 sequence (Q9NR97 27-1041): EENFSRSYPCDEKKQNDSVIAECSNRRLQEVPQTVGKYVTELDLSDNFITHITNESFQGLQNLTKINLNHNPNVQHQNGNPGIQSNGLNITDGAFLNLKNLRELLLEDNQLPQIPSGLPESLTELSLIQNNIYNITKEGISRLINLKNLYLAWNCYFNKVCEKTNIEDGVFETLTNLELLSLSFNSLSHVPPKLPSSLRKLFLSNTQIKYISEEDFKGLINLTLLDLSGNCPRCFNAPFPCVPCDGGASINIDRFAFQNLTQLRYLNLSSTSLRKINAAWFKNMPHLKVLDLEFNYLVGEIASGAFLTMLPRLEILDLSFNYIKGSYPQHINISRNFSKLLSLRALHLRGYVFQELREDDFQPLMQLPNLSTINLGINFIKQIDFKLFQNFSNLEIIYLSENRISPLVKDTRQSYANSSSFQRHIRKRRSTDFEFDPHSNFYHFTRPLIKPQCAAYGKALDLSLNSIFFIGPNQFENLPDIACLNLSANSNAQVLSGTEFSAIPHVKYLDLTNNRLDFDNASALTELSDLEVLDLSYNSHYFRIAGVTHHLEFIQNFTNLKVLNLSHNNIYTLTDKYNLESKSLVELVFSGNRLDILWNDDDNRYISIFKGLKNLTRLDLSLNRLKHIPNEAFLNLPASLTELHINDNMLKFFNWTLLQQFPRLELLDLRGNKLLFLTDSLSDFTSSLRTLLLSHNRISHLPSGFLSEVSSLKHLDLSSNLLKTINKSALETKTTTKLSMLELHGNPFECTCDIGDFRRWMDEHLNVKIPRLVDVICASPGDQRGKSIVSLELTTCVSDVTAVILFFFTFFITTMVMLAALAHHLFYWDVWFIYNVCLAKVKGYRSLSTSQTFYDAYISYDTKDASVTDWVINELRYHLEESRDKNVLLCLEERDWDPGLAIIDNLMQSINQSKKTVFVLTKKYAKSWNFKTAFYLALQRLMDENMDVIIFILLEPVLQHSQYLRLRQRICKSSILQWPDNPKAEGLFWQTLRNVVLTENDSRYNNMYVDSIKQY
Procedure: as §1, §2

human TLR7 = molecular target: T3, human TLR7 (Homo sapiens, UniProt Q9NYK1); experiment: TLR7 inhibition reporter assay (HEK-Blue SEAP); details: HEK-Blue cells overexpressing human TLR7, gardiquimod 7.5 μM, 22 hour incubation
T3 construct: host or cells: HEK-Blue cells
T3 sequence (Q9NYK1 27-1049): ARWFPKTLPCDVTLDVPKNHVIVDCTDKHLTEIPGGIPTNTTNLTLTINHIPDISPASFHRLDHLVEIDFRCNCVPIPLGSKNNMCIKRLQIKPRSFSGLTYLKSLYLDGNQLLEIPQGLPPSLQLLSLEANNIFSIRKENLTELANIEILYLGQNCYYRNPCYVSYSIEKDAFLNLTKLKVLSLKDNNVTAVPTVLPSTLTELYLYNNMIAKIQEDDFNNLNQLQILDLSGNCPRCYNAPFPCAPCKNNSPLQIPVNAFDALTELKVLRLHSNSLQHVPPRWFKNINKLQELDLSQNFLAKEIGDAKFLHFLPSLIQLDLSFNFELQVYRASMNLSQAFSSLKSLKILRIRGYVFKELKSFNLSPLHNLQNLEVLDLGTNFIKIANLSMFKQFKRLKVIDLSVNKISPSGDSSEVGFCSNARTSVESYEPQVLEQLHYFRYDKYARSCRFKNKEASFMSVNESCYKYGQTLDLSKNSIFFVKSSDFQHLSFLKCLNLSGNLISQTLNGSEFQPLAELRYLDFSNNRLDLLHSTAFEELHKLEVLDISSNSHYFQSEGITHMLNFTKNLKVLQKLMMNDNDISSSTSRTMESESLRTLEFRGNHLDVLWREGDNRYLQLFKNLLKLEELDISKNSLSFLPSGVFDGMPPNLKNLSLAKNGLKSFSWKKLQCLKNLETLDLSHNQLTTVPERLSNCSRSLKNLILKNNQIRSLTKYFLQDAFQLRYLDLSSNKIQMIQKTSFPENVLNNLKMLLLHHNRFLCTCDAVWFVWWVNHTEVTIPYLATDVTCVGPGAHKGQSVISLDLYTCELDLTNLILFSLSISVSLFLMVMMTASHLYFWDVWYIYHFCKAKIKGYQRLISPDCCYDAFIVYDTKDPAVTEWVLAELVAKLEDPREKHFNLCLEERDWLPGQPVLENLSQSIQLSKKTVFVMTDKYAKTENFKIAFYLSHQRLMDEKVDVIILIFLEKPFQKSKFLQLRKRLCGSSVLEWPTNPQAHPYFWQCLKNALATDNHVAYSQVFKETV
Procedure: as §1
Briefly, cells are seeded into Greiner 384 well plates (15000 cells per well for TLR7, 20,000 for TLR8 and 25,000 for TLR9) and then treated with test compounds in DMSO to yield a final dose response concentration range of 0.05 nM-50 μM. […] After a 22 hour incubation at 37° C., 5% CO2, SEAP levels are determined with the addition of HEK-Blue™ Detection reagent (Invivogen), a cell culture medium that allows for detection of SEAP, according to manufacturer's specifications. The percent inhibition is determined as the % reduction in the HEK-Blue signal present in wells treated with agonist plus DMSO alone compared to wells treated with a known inhibitor.

IC50 (human TLR9) | IC50 (human TLR8) | IC50 (human TLR7) | Compound
5050 nM | 16.7 nM | – | Cc1cc2c(cc1-c1cc(C)c3ncnn3c1)[nH]c(=O)n2[C@@H]1CCCN(CCC(C)C)C1 [Example 38, (R)-1-(1-isopentylpiperidin-3-yl)-6-methyl-5-(8-methyl-[1,2,4]triazolo[1,5-a]pyridin-6-yl)-1,3-dihydro-2H-benzo[d]imidazol-2-one]
– | 19.3 nM | 17.1 nM | CCc1cc2c(cc1-c1cc(OC)c3ncnn3c1)[nH]c(=O)n2[C@@H]1CCCN(C2CCCOC2)C1 (stereo partly drawn) [Example 214, 6-ethyl-5-(8-methoxy-[1,2,4]triazolo[1,5-a]pyridin-6-yl)-1-((3R)-1-(tetrahydro-2H-pyran-3-yl)piperidin-3-yl)-1,3-dihydro-2H-benzo[d]imidazol-2-one]
– | 3.54 nM | 8.3 nM | COc1cc(-c2cc3[nH]c(=O)n(C4CCC(N5CC6(C5)CS(=O)(=O)C6)CC4)c3cc2C(C)C)cn2ncnc12 (single isomer, unassigned) [Example 244, 1-(4-(2,2-dioxido-2-thia-6-azaspiro[3.3]heptan-6-yl)cyclohexyl)-6-isopropyl-5-(8-methoxy-[1,2,4]triazolo[1,5-a]pyridin-6-yl)-1,3-dihydro-2H-benzo[d]imidazol-2-one]
– | 8 nM | 3.38 nM | CCc1cc2c(cc1-c1cc(OC)c3ncnn3c1)[nH]c(=O)n2[C@@H]1CCCN(C(C)CC)C1 (stereo partly drawn) [Example 176, 1-((3R)-1-(sec-butyl)piperidin-3-yl)-6-ethyl-5-(8-methoxy-[1,2,4]triazolo[1,5-a]pyridin-6-yl)-1,3-dihydro-2H-benzo[d]imidazol-2-one]
– | 24.5 nM | 5.55 nM | Cc1c(-c2cc3[nH]c(=O)n([C@@H]4CCCN(CC(C)(C)C)C4)c3cc2C(C)C)cn2ncnc2c1C [Example 152, (R)-5-(7,8-dimethyl-[1,2,4]triazolo[1,5-a]pyridin-6-yl)-6-isopropyl-1-(1-neopentylpiperidin-3-yl)-1,3-dihydro-2H-benzo[d]imidazol-2-one]

— patent publication US12187723B2 (BRISTOL-MYERS SQUIBB COMPANY, priority 2019, dated 2025)
